pIC50, pKi: −log10 of the molar value. Read-outs that look alike come from different tables or passages of the source.
Columns and labels:
[1] = molecular target: T1, sigma-1 binding site (Cavia porcellus, UniProt Q60492); assay: biochemical; parameters: species or system guinea pig; conditions: for IC50: read-out: IC50 (nM) at sigma-1; for IC50 ratio of sigma-1/sigma-2 (sigma-1 selective compounds): less than about 0.1, see Table 10
T1 construct: Guinea pig whole membrane preparations (P2 microsomal fraction); from tissue; host or cells: guinea pig membranes (P2 microsomal fraction), as described by Weber et al; brain inferred from the sister test b489
T1 sequence (Q60492 whole entry): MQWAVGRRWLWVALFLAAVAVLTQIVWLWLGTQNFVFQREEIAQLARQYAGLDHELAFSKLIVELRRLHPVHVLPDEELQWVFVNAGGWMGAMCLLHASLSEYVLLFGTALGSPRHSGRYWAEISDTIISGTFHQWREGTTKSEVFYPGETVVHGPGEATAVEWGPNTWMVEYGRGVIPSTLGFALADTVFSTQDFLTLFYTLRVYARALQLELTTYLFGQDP
Method: [^3 H]DTG was purchased from DuPont/NEN.
The radioactivity on the filters was determined by scintillation spectrometry at an efficiency of about 50% using Cytoscint (ICN) scintillation fluid.

[2] = molecular target: T2, sigma-2 binding site (Cavia porcellus, UniProt H0V073); assay: biochemical; parameters: species or system guinea pig; conditions: for IC50: Table 17, read-out: IC50 (nM) at sigma-2
T2 construct: Guinea pig whole membrane preparations (P2 microsomal fraction); from tissue; host or cells: guinea pig membranes (P2 microsomal fraction), as described by Weber et al; brain inferred from the sister test b489
T2 sequence (H0V073 1-176): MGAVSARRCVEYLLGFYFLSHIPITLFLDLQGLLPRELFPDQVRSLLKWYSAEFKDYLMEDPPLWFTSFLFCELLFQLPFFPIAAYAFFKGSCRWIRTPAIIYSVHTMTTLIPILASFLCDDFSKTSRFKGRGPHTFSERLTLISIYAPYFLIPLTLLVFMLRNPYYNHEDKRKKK
Method: For the standard equilibrium assay, the mixtures were incubated for 30 min. at room temperature, then filtered and the radioactivity determined as described above.

[3] = molecular target: PCP receptor; assay: PCP receptor binding, ^3 H-MK-801; parameters: species or system rat; conditions: Table 4
Method: PCP receptor binding assays against ^3 H-MK-801 were conducted as described by Keana et al., Proc. Natl. Acad. Sci (USA) 86: 5631-5635 (1989); Keana et al., Life Sciences 43: 965-973 (1988). For (+) ^3 H-MK-801 binding, 1 nM of radioligand was incubated with about 100 ug of thawed rat brain membrane protein for 4 hr at room temperature. The assays were carried out in 5 mM Tris/acetate and were stopped by rapid filtration through Whatman GF/B or Schleicher & Schuell no. 32 glass fiber filters (presoaked in 0.05% polyethylenamine).

[4] = molecular target: T3, 5-HT1A receptor (Rattus norvegicus, UniProt P19327); assay: biochemical; assay type: binding; parameters: 47: 529-540 (1986); from tissue; host or cells: brain tissue, inferred from the cited method (rat frontal cortex)
T3 sequence (P19327 1-422): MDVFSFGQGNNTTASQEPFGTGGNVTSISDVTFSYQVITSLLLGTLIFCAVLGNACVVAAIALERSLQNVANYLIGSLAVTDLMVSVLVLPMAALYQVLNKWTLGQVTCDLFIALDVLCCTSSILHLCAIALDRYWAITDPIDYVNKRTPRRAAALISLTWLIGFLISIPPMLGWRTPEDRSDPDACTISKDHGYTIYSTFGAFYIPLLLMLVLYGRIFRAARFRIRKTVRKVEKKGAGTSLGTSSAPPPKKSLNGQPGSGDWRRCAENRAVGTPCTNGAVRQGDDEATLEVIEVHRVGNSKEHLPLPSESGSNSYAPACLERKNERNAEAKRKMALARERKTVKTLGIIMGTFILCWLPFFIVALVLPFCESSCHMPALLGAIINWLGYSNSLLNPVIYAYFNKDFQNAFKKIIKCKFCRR
Method: Further sigma receptor binding assays against [^3 H]DTG and 5HT-1A binding assays were conducted according to the procedure outlined in the previous examples.

[5] = system: sigma receptor; assay: Sigma receptor binding, [^3 H]DTG, brain membranes (both sigma-1 and sigma-2 sites); parameters: species or system guinea pig; conditions: Examples 5 and 6; [^3 H]DTG
[6] = Table 10, read-out: SIGMA-1 KI vs. 3H-PENTAZOCINE MEAN
[7] = Table 10, read-out: SIGMA-2 KI vs. 3H-DTG + PENTAZOCINE MEAN
[8] = Table 13, read-out: Sigma-1 IC50

| Structure (SMILES) | pKi [2, 7] | pIC50 [3] | Ratio 5-HT1A /σ ([4]; Table 5) | pIC50 ([4]; Table 5, read-out: 5-HT1A IC50) | also measured |
| --- | --- | --- | --- | --- | --- |
| CCCC(N)Cc1ccccc1 (racemic) [Compound 34, (±) 1-Phenyl-2-aminopentane] | 4.99 | < 5.00 | 2.6 | 5.18 | pKi [1, 6]: 5.93; S1/S2 Ratio ([1]; Table 10, sigma-1/sigma-2): 0.115 |
| CC(Cc1ccc2ccccc2c1)NCCCc1ccccc1 (centres unmarked) [Compound 18, N-(3-phenylpropyl)-1-(2-naphthyl)-2-propylamine] | 7.82 | < 5.00 |  | 6.23 |  |
| CC(Cc1ccc(Br)cc1)NCCCc1ccccc1 (racemic) [Compound 21, (±) N-[1-(4'-Bromophenyl)-2-propyl]-3-phenylpropylamine] | 7.41 | < 5.00 |  | 6.71 | IC50 [2]: 39 nM |
| CC(Cc1cccc(Br)c1)NCCCc1ccccc1 (racemic) [Compound 20, (±) N-[1-(3'-Bromophenyl)-2-propyl]-3-phenylpropylamine] | 7.58 | < 5.00 | 17 | 6.97 | pKi [1, 6]: 8.02; S1/S2 Ratio ([1]; Table 10, sigma-1/sigma-2): 0.369; IC50 ([1]; Table 12): 9.6 nM; IC50 [2]: 26 nM |
| CC(Cc1cccc2ccccc12)NCCCc1ccccc1 (racemic) [Compound 16, (±) N-[1-(1'-Naphthyl)-2-propyl]-3-phenylpropylamine] | 6.82 | < 5.00 |  | 7.35 | pKi ([2]; Example 9, read-out: sigma-2 binding affinity): 6.82 |
| C[C@H](Cc1ccccc1)NCCCc1cccc2ccccc12 [Compound 11, R(-) N-(1-phenyl-2-propyl)-3-(1-naphthyl)propylamine] |  | < 5.00 | 11 | 6.98 | pIC50 [1, 8]: 8.07; reduction in sigma-2 affinity vs. cmp. #1 ([2]; Example 9): about 4 fold |
| CC(Cc1ccccc1)NCCCCc1ccccc1 (racemic) [Compound 10, (±) N-(1-phenyl-2-propyl)-4-phenylbutylamine] | 7.27 | < 5.00 | 22 | 6.67 | change in sigma-1 affinity vs. compound No. 1, words ([1]; Example 8): doubles affinity; pKi [1, 6]: 8.33; S1/S2 Ratio ([1]; Table 10, sigma-1/sigma-2): 0.088; IC50 ([1]; Table 14): 4.7 nM; IC50 ratio of sigma-1/sigma-2 (sigma-1 selective compounds) [1]: less than 0.1 |
| C[C@@H](Cc1ccccc1)NCCCCc1ccccc1 [Compound 44, N-(4-phenylbutyl)-1-phenyl-2-propylamine] |  | < 5.00 |  |  | pKi ([1]; SIGMA-1 KI vs. 3H-P[…]): 7.71; S1/S2 Ratio ([1]; guinea pig, microsomes): .543; pKi ([2]; SIGMA-2 KI vs. 3H-DTG + P[…]): 7.45; pIC50 [4]: 6.56; Ratio 5-HT1A /σ [4]: 40 |
| C[C@H](Cc1ccccc1)NCc1ccccc1 [Compound 6] |  | < 5.00 | 31 | 5.42 |  |
| c1ccc(CCCN2CCN(c3ccc4ccccc4c3)CC2)cc1 [Compound 50] |  | < 5.00 | 94 | 6.55 |  |
| CC(Cc1ccc2ccccc2c1)NCCCc1ccccc1 (racemic) [Compound 17, (±) N-[1-(2'-Naphthyl)-2-propyl]-3-phenylpropylamine] | 6.65 | < 5.00 |  | 7.06 |  |
| C[C@@H](N)Cc1ccc([N+](=O)[O-])cc1 [Compound 30] |  | < 5.00 | 2.6 | 4.26 |  |
| C[C@@H](Cc1ccccc1)NCCCCCc1ccccc1 [Compound 45, N-(5-phenylpentyl)-1-phenyl-2-propylamine] |  | < 5.00 |  |  | pIC50 [1]: 9.06; change in sigma-1 affinity vs. compound No. 1, words [1]: substantially increases affinity; pKi ([1]; SIGMA-1 KI vs. 3H-P[…]): 9.06; S1/S2 Ratio ([1]; guinea pig, microsomes): .048; pKi ([2]; SIGMA-2 KI vs. 3H-DTG + P[…]): 7.73; pIC50 [4]: 6.23; Ratio 5-HT1A /σ [4]: 100 |
| c1ccc(CCCCN2CCN(c3ccccc3)CC2)cc1 [Compound 48] |  | < 5.00 | 2.3 | 8.20 |  |
| C[C@H](Cc1ccccc1)NCCOc1ccccc1 [Compound 8] |  | < 5.00 | .92 | 7.36 | change in sigma receptor affinity vs. analog [5]: about 7 fold |
| Clc1cccc(N2CCN(CCc3ccccc3)CC2)c1 [Compound 32, 1-(3'-Chlorophenyl)-4-(2-phenylethyl)piperazine] | 7.37 | < 5.00 | .80 | 8.06 | pKi [1, 6]: 7.83; S1/S2 Ratio ([1]; Table 10, sigma-1/sigma-2): 0.352 |
| CN[C@H](C)Cc1ccccc1 [Compound 3] |  | < 5.00 |  | 5.75 |  |
| CC(Cc1cccc(C(F)(F)F)c1)NCCCc1ccccc1 (racemic) [Compound 23, (±) N-[1-(3'-Trifluoromethyl)-2-propyl]-3-phenylpropylamine] | 7.68 | < 5.00 | 25 | 6.98 | pKi [1, 6]: 8.06; S1/S2 Ratio ([1]; Table 10, sigma-1/sigma-2): 0.420; IC50 ([1]; Table 12): 8.8 nM; IC50 [2]: 21 nM |
| C[C@@H](Cc1ccccc1)NCCc1ccccc1 [Compound 27] |  | < 5.00 | 200 | 5.19 |  |
| c1ccc(CCCNC2CCc3ccccc3C2)cc1 (centres unmarked) [Compound 31] |  | < 5.00 | .92 | 7.71 |  |
| C[C@@H](N)Cc1ccc(I)cc1 [Compound 29] |  | < 5.00 | 3.1 | 4.81 |  |
| C[C@H](Cc1ccccc1)NCCC(=O)c1ccccc1 [Compound 9] |  | < 5.00 | 2 | 6.91 |  |
| FC(F)(F)c1cccc(N2CCN(CCCCc3ccccc3)CC2)c1 [Compound 47] |  | < 5.00 | 1.6 | 8.03 |  |
| C[C@@H](Cc1ccccc1)NCCCc1ccccc1 [Compound 43, N-(3-phenylpropyl)-1-pheny1-2-propylamine] | 7.43 | < 5.00 |  | 5.95 | 5-HT1A affinity relative to antipode ([4]; S(+) isomer of cmp. #1): only one-tenth the affinity of its antipode |
| c1ccc(CCCN2CCN(c3ccccc3)CC2)cc1 [Compound 46] |  | < 5.00 | 3 | 7.67 |  |
| C[C@H](Cc1ccccc1)NCCCc1ccc2ccccc2c1 [Compound 12, R(-) N-(1-phenyl-2-propyl)-3-(2-naphthyl)propylamine] | 6.59 | < 5.00 | 56 | 6.88 | pKi [1, 6]: 8.24; S1/S2 Ratio ([1]; Table 10, sigma-1/sigma-2): 0.022; pIC50 [1, 8]: 8.24; IC50 ratio of sigma-1/sigma-2 (sigma-1 selective compounds) [1]: less than 0.1; reduction in sigma-2 affinity vs. cmp. #1 ([2]; Example 9): about 4 fold |
| CCN[C@H](C)Cc1ccccc1 [Compound 4] |  | < 5.00 | 5.9 | 5.39 |  |
| C[C@H](N[C@@H](C)Cc1ccccc1)c1ccccc1 [Compound 26] |  | < 5.00 | 3.5 | 5.00 |  |
| Clc1cccc(N2CCN(CCCc3ccccc3)CC2)c1 [Compound 33] |  | < 5.00 | 2.6 | 7.29 |  |

From patent US6057371A, “Sigma receptor ligands and the use thereof” (Virginia Commonwealth University, priority 1992, dated 2000)
